Experimental data as given in patent publication US20260315475A1 (priority 2023, published 2026).
Where two headings read alike, the source gives them in different places.

Legend:
[1] = 275 mg/kg/day oral, cited from earlier work
[2] = in vivo; cited from earlier work
[3] = 200 and 400 mg; cited from earlier work
[4] = Changes in belumosudil exposure in subjects with hepatic impairment compared to subjects with normal hepatic function; type: in vivo, human; details: single 200 mg
[5] = test system: CYP3A4; details: role: substrate; in vitro; cited from earlier work
[6] = test system: BCRP; details: role: inhibitor; clinically relevant concentrations, in vitro; cited from earlier work
[7] = test system: bacteria; details: in vitro; cited from earlier work
[8] = Safety and tolerability in the Phase I hepatic impairment study; type: in vivo, human
From the text: The secondary objectives were: to evaluate the safety and tolerability of a single oral dose of belumosudil in participants with mild, moderate, or severe hepatic impairment, and in healthy participants with normal hepatic function; to assess the PK of the belumosudil metabolites following a single oral dose of belumosudil in participants with mild, moderate, or severe hepatic impairment compared to healthy participants with normal hepatic function. […]
The secondary/safety endpoints were: incidence and severity of adverse events (AEs), clinical laboratory parameters (hematology, clinical chemistry, coagulation, and urinalysis), 12-lead electrocardiogram (ECG) parameters, vital signs parameters, and physical examinations.
Treatment-emergent AEs (TEAEs) were summarized by severity and relationship to the investigational medicinal product (IMP). The frequency of TEAEs was summarized by Medical Dictionary for Regulatory Activities system organ class and preferred term, and hepatic function. Summary and frequency TEAE tables were presented for all causalities and for those considered related to the IMP.
Serum biochemistry, hematology, and coagulation data were summarized by hepatic function. In addition, all serum biochemistry, hematology, and urinalysis data outside the clinical reference ranges were listed by parameter and treatment. Vital signs and ECG data were summarized by hepatic function, together with changes from baseline.

[9] = dogs; cited from earlier work
[10] = test system: CYP2C19; details: role: inhibitor; in vitro; cited from earlier work
[11] = cited from earlier work
[12] = Embryo-fetal developmental study in rabbits; type: in vivo; details: rabbit
[13] = pregnant rats, cited from earlier work
[14] = test system: rat bone marrow; details: in vivo; cited from earlier work
[15] = test system: UGT1A1; details: role: inhibitor; in vitro; cited from earlier work
[16] = single dose, high-fat high-calorie meal vs fasted, healthy subjects; cited from earlier work
[17] = test system: OATP1B1; details: role: inhibitor; clinically relevant concentrations, in vitro; cited from earlier work
[18] = single oral dose, radiolabeled, healthy subjects; cited from earlier work
[19] = test system: human peripheral blood lymphocytes (HPBL); details: in vitro; cited from earlier work
[20] = moderate (Child-Pugh B) vs normal
[21] = severe (Child-Pugh C) vs normal
[22] = moderate hepatic impairment group
[23] = healthy subjects, coadministered omeprazole
[24] = healthy subjects, coadministered rabeprazole
[25] = healthy subjects, coadministered rifampin

SMILES: CC(C)NC(=O)COc1cccc(-c2nc(Nc3ccc4[nH]ncc4c3)c3ccccc3n2)c1 [belumosudil, 2-{3-[4-(1H-indazol-5-ylamino)-2-quinazolinyl]phenoxy}-N-(propan-2-yl) acetamide]
- adverse findings in female rats (pre-/post-implantation loss, viable embryos) [1]: increased pre- or post-implantation loss and decreased number of viable embryos
- fertility of treated males or females [1]: Fertility was reduced in both treated males or females
- sperm findings ([1]; male rats): abnormal sperm findings (reduced motility, reduced count, and increased percentage of abnormal sperm)
- testes/epididymis organ changes ([1]; male rats): reduced weight and degeneration
- activity in animal models of chronic GVHD [2]: demonstrates activity
- dose proportionality of Cmax and AUC [3]: increased in an approximately proportional manner
- AUC change, free concentrations: decrease ([4]; mild (Child-Pugh A) vs normal): 19%
- AUC change, total (free + bound): increase ([4]; mild (Child-Pugh A) vs normal): 1.4-fold
- Cmax change, free concentrations: decrease ([4]; mild (Child-Pugh A) vs normal): 14%
- Cmax change, total (free + bound): increase ([4]; mild (Child-Pugh A) vs normal): 1.2-fold
- AUC change, free concentrations: increase [4, 20]: 1.4-fold
- AUC change, total (free + bound): increase [4, 20]: 1.5-fold
- Cmax change, free concentrations: decrease [4, 20]: 12%
- Cmax change, total (free + bound): decrease [4, 20]: 6%
- AUC change, free concentrations: increase [4, 21]: 16-fold
- AUC change, total (free + bound): increase [4, 21]: 4.2-fold
- Cmax change, free concentrations: increase [4, 21]: 5.4-fold
- Cmax change, total (free + bound): increase [4, 21]: 1.3-fold
- metabolism by CYP3A4 [5]: primarily metabolized
- BCRP inhibition [6]: inhibits
- genotoxicity, bacterial mutagenicity (Ames) [7]: not genotoxic
- 12-lead ECG parameters ([8]; individual participants): no clinically significant changes
- vital signs parameters ([8]; individual participants): no clinically significant changes
- number of SAEs [8, 22]: 1
- number of TEAEs [8, 22]: 2 TEAEs
- participants reporting TEAEs ([8]; moderate hepatic impairment group, 1 participant): 12.5%
- AEs related to study drug ([8]; single oral 200 mg): no reports of AEs related to study drug
- deaths ([8]; single oral 200 mg): no reports of deaths
- discontinuation due to an AE ([8]; single oral 200 mg): no participants discontinued due to an AE
- clinical chemistry, hematology, coagulation, or urinalysis ([8]; throughout the study): no clinically significant changes
- physical examinations ([8]; throughout the study): no clinically significant findings
- dose with spermatozoa degeneration [9]: 35 mg/kg/day
- CYP2C19 inhibition [10]: inhibitor
- effect of proton pump inhibitors on belumosudil exposure ([11]; coadministered proton pump inhibitors): decreases belumosudil exposure
- effect of strong CYP3A inducers on belumosudil exposure ([11]; coadministered strong CYP3A inducers): decreases belumosudil exposure
- effect of itraconazole on belumosudil exposure ([11]; healthy subjects, coadministered itraconazole): no clinically meaningful effect on belumosudil exposure
- decrease in belumosudil AUC [11, 23]: 47%
- decrease in belumosudil Cmax [11, 23]: 68%
- decrease in belumosudil AUC [11, 24]: 80%
- decrease in belumosudil Cmax [11, 24]: 87%
- decrease in belumosudil AUC [11, 25]: 72%
- decrease in belumosudil Cmax [11, 25]: 59%
- maternal exposure (AUC) multiple of human exposure with adverse developmental outcomes [12]: ≥ 0.07 times the human exposure
- doses with fetal malformations ([13]; oral, pilot study, absence of anus and tail, omphalocele, dome shaped head): ≥ 50 mg/kg/day
- maternal exposure (AUC) causing embryo-fetal mortality and malformations vs patients ([13]; organogenesis): less than those in patients at the recommended dose
- genotoxicity, micronucleus [14]: not genotoxic
- UGT1A1 inhibition [15]: inhibitor
- increase in AUC with food [16]: 2 times
- increase in Cmax with food [16]: 2.2 times
- OATP1B1 inhibition [17]: inhibits
- radioactivity recovered in feces [18]: 85%
- radioactivity recovered in feces as unchanged [18]: 30%
- radioactivity recovered in urine [18]: less than 5%
- genotoxicity, chromosome aberration [19]: not genotoxic
